Laboratory results as given in patent US7498349B2, “Biaryl compounds having anti-infective activity” (Genesoft Pharmaceuticals, Inc., priority 2002, dated 2009).

Tests used:
B. cereus ATCC 11778 = test: MIC, NCCLS broth microdilution assay; type: cell-based, Bacillus cereus; conditions: B. cereus ATCC 11778
S. pneumoniae ATCC 49619 = test: MIC, NCCLS broth microdilution assay; type: cell-based, Streptococcus pneumoniae; conditions: S. pneumoniae ATCC 49619
S. aureus ATCC 13709 = test: MIC, NCCLS broth microdilution assay; type: cell-based, Staphylococcus aureus; conditions: S. aureus ATCC 13709, methicillin sensitive strain (MSSA)
S. aureus ATCC 27660 = test: MIC, NCCLS broth microdilution assay; type: cell-based, Staphylococcus aureus; conditions: S. aureus ATCC 27660, methicillin resistant strain (MRSA)
Text: In vitro biological activity data were collected for a variety of microorganisms, including Bacillus cereus (ATCC 11778), Staphylococcus aureus (ATCC 33591; ATCC 27660, a methicillin resistant strain (MRSA); ATCC 13709, a methicillin sensitive strain (MSSA)), Escherichia coli (ATCC 25922), Enterococcus faecalis (ATCC 29212), Streptococcus pneumoniae (ATCC 49619; ATCC 51422, a penicillin resistant strain (PRSP)), Enterococcus faecium (ATCC 51559, a vancomycin resistant strain (VRE)), and Staphylococcus epidermidis (ATCC 12228).
The minimal inhibition concentration (MIC) of these compounds was determined using the National Committee for Clinical Laboratory Standards (NCCLS) broth microdilution assay in microtiter plates, as set forth in: (1) the guidelines of the National Committee for Clinical Laboratory Standards (NCCLS) Document M7-A4 (NCCLS, 1997); (2) the guidelines of the National Committee for Clinical Laboratory Standards (NCCLS) Document M11-A4 (NCCLS, 1997); and (3) the guidelines and reference method of the National Committee for Clinical Laboratory Standards (NCCLS) Document M27 -T (NCCLS, 1995).

C. albicans ATCC 38247 = test: MIC, antifungal assay; type: cell-based, Candida albicans; conditions: C. albicans ATCC 38247
E. faecalis ATCC 29212 = test: MIC, NCCLS broth microdilution assay; type: cell-based, Enterococcus faecalis; conditions: E. faecalis ATCC 29212
E. coli ATCC 25922 = test: MIC, NCCLS broth microdilution assay; type: cell-based, Escherichia coli; conditions: E. coli ATCC 25922

| Compound | Minimum Inhibitory Concentration (MIC) (B. cereus ATCC 11778) | Minimum Inhibitory Concentration (MIC) (S. pneumoniae ATCC 49619) | Minimum Inhibitory Concentration (MIC) (S. aureus ATCC 13709) | Minimum Inhibitory Concentration (MIC) (S. aureus ATCC 27660) | Minimum Inhibitory Concentration (MIC) (C. albicans ATCC 38247) | Minimum Inhibitory Concentration (MIC) (E. faecalis ATCC 29212) | Minimum Inhibitory Concentration (MIC) (E. coli ATCC 25922) |
| --- | --- | --- | --- | --- | --- | --- | --- |
| O=C(Nc1ccc(-c2cc3ccccc3o2)cc1)c1nsc(NCCN2CCNCC2)c1Cl [Compound A-1] | +++ (MIC ≦ 4) | + (12 ≦ MIC ≦ 32) | +++ (MIC ≦ 4) | +++ (MIC ≦ 4) | + (12 ≦ MIC ≦ 32) | +++ (MIC ≦ 4) | >32 µg/mL |
| NCCCCNc1snc(C(=O)Nc2ccc(-c3cc4ccccc4o3)cc2)c1Cl [Compound A-4] | + (12 ≦ MIC ≦ 32) | >32 µg/mL | +++ (MIC ≦ 4) | +++ (MIC ≦ 4) | + (12 ≦ MIC ≦ 32) | +++ (MIC ≦ 4) | >32 µg/mL |
| CCN(CC)CCCNc1snc(C(=O)Nc2ccc(-c3cc4ccccc4o3)cc2)c1Cl [Compound A-5] | ++ (4 < MIC < 12) | >32 µg/mL | +++ (MIC ≦ 4) | +++ (MIC ≦ 4) | ++ (4 < MIC < 12) | +++ (MIC ≦ 4) | >32 µg/mL |
| NCCOCCOCCNc1snc(C(=O)Nc2ccc(-c3cc4ccccc4o3)cc2)c1Cl [Compound A-6] | >32 µg/mL | >32 µg/mL | +++ (MIC ≦ 4) | +++ (MIC ≦ 4) | ++ (4 < MIC < 12) | +++ (MIC ≦ 4) | >32 µg/mL |
| NCCCNc1ncccc1C(=O)Nc1ccc(-c2cc3ccccc3o2)cc1 [Compound A-9] | +++ (MIC ≦ 4) | + (12 ≦ MIC ≦ 32) | +++ (MIC ≦ 4) | +++ (MIC ≦ 4) | + (12 ≦ MIC ≦ 32) | +++ (MIC ≦ 4) | + (12 ≦ MIC ≦ 32) |
| O=C(Nc1ccc(-c2cc3ccccc3o2)cc1)c1cccnc1NCCN1CCNCC1 [Compound A-10] | + (12 ≦ MIC ≦ 32) | + (12 ≦ MIC ≦ 32) |  |  | >32 µg/mL | + (12 ≦ MIC ≦ 32) | >32 µg/mL |
| O=C(Nc1ccc(-c2cc3ccccc3o2)cc1)c1cccnc1NCCN1CCCCC1 [Compound A-13] | +++ (MIC ≦ 4) | + (12 ≦ MIC ≦ 32) | +++ (MIC ≦ 4) | +++ (MIC ≦ 4) | + (12 ≦ MIC ≦ 32) | +++ (MIC ≦ 4) | >32 µg/mL |
| O=C(Nc1ccc(-c2cc3ccccc3o2)cc1)c1cccnc1NCCN1CCSCC1 [Compound A-14] | >32 µg/mL | >32 µg/mL | >32 µg/mL | >32 µg/mL | >32 µg/mL | >32 µg/mL | >32 µg/mL |
| O=C(Nc1ccc(-c2cc3ccccc3o2)cc1)c1cccnc1NCCN1CCCC1 [Compound A-15] | ++ (4 < MIC < 12) | + (12 ≦ MIC ≦ 32) | +++ (MIC ≦ 4) | +++ (MIC ≦ 4) | + (12 ≦ MIC ≦ 32) | +++ (MIC ≦ 4) | >32 µg/mL |
| O=C(Nc1ccc(-c2cc3ccccc3o2)cc1)c1cccnc1NCCCN1CCOCC1 [Compound A-16] | >32 µg/mL | + (12 ≦ MIC ≦ 32) | +++ (MIC ≦ 4) | +++ (MIC ≦ 4) | + (12 ≦ MIC ≦ 32) | ++ (4 < MIC < 12) | >32 µg/mL |
